IC50 data for eight compounds are collected here from patent publication US9173882B2, “Polycyclic heteroaryl substituted triazoles useful as Axl inhibitors” (Rigel Pharmaceuticals, Inc., priority 2008, dated 2015).

For the test, the target named is T1, Axl (Homo sapiens, UniProt P30530).
T1 construct: endogenous in cells; host or cells: HeLa cells
T1 sequence (P30530 26-894): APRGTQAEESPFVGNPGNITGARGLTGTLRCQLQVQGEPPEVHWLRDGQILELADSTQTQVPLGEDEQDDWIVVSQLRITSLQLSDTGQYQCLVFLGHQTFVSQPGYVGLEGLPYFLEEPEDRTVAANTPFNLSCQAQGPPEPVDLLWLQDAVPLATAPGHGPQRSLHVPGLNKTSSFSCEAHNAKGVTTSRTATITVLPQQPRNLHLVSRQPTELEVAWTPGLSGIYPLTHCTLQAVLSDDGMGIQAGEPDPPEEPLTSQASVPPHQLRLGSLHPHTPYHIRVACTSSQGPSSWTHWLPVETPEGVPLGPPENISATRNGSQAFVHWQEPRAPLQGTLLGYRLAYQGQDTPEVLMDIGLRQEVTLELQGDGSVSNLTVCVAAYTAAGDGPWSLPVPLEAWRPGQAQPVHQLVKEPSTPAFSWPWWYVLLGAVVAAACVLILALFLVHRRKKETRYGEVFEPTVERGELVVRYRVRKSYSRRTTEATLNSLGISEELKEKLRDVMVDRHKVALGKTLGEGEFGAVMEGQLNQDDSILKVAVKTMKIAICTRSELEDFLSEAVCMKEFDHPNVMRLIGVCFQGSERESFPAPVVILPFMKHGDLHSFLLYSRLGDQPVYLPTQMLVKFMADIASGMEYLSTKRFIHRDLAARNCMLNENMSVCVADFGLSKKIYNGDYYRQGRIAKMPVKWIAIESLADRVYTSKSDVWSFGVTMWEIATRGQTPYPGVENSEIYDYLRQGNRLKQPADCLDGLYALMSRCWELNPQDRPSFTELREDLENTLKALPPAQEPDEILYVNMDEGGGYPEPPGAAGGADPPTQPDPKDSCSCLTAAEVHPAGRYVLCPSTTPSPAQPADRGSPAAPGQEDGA
Put plainly: Phospho-Akt in-cell Western assay. The class given is cell-based. The settings on record: Hela cells, stimulated by Axl-antibody cross-linking, phospho-Akt chemiluminescence; Table 1, formula (Ia). In outline:
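HeLa cells on poly-L-lysine, starved 24 h in 0.5% FCS with 500 ng/mL Axl/Fc, pre-treated with compound 1 hr at 37° C, then stimulated 5 min by cross-linked anti-Axl antibody clusters. Fixed cells probed for phospho-Akt by in-cell Western with HRP chemiluminescence, read within 10 min.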
`CCCN(CCC)[C@H]1CCc2ccc(Nc3nc(N)n(-c4cc5c(nn4)-c4ccccc4CCC5)n3)cc2CC1` [Compound 19, 1-(6,7-dihydro-5H-benzo[6,7]cyclohepta[1,2-c]pyridazin-3-yl)-N^3-((7S)-7-(dipropylamino)-6,7,8,9-tetrahydro-5H-benzo[7]annulene-2-yl)-1H-1,2,4-triazole-3,5-diamine] returned an IC50 of less than 1 µM.
Take `Nc1nc(Nc2ccc3c(c2)CC[C@@H](NC2CCC2)CC3)nn1-c1cc2c(nn1)-c1ccccc1CCC2` [Compound 32, 1-(6,7-dihydro-5H-benzo[6,7]cyclohepta[1,2-c]pyridazin-3-yl)-N^3-((7S)-7-(cyclobutylamino)-6,7,8,9-tetrahydro-5H-benzo[7]annulene-2-yl)-1H-1,2,4-triazole-3,5-diamine]: the IC50 was less than 1 µM.
As for `Nc1nc(Nc2cccc3c2CCC(N2CCCC2)CC3)nn1-c1cc2c(nn1)-c1ccccc1CCC2` (centres unmarked) [Compound 11, 1-(6,7-dihydro-5H-benzo[6,7]cyclohepta[1,2-c]pyridazin-3-yl)-N^3-(7-(pyrrolidin-1-yl)-6,7,8,9-tetrahydro-5H-benzo[7]annulene-1-yl)-1H-1,2,4-triazole-3,5-diamine], the figure is more than 20 µM.
In turn, `CCCN[C@H]1CCc2ccc(Nc3nc(N)n(-c4cc5c(nn4)-c4ccccc4CCC5)n3)cc2CC1` [Compound 18, 1-(6,7-dihydro-5H-benzo[6,7]cyclohepta[1,2-c]pyridazin-3-yl)-N^3-((7S)-7-((propyl)amino)-6,7,8,9-tetrahydro-5H-benzo[7]annulene-2-yl)-1H-1,2,4-triazole-3,5-diamine] came in with an IC50 of less than 1 µM.
To `CC(C)CCN(CCC(C)C)[C@H]1CCc2ccc(Nc3nc(N)n(-c4cc5c(nn4)-c4cccnc4CCC5)n3)cc2CC1` [Compound 51, 1-(6,7-dihydro-5H-pyrido[2′,3′:6,7]cyclohepta[1,2-c]pyridazin-3-yl)-N^3-((7S)-7-(di(3-methylbutyl)amino)-6,7,8,9-tetrahydro-5H-benzo[7]annulene-2-yl)-1H-1,2,4-triazole-3,5-diamine] belongs 1 to 10 µM; to `Nc1nc(Nc2ccc3c(c2)CC[C@@H](N(CC2CCCCC2)CC2CCCCC2)CC3)nn1-c1cc2c(nn1)-c1ccccc1CCC2` [Compound 27, 1-(6,7-dihydro-5H-benzo[6,7]cyclohepta[1,2-c]pyridazin-3-yl)-N^3-((7S)-7-(di(cyclohexylmethyl)amino)-6,7,8,9-tetrahydro-5H-benzo[7]annulene-2-yl)-1H-1,2,4-triazole-3,5-diamine], 10 to 20 µM; to `CC(C)CCN(CCC(C)C)[C@H]1CCc2ccc(Nc3nc(N)n(-c4cc5c(nn4)-c4ccccc4CCC5)n3)cc2CC1` [Compound 40, 1-(6,7-dihydro-5H-benzo[6,7]cyclohepta[1,2-c]pyridazin-3-yl)-N^3-((7S)-7-(di(3-methylbutyl)amino)-6,7,8,9-tetrahydro-5H-benzo[7]annulene-2-yl)-1H-1,2,4-triazole-3,5-diamine], 1 to 10 µM.
In turn, `CCC(CC)CN[C@H]1CCc2ccc(Nc3nc(N)n(-c4cc5c(nn4)-c4ccccc4CCC5)n3)cc2CC1` [Compound 41, 1-(6,7-dihydro-5H-benzo[6,7]cyclohepta[1,2-c]pyridazin-3-yl)-N^3-((7S)-7-(2-ethylbutylamino)-6,7,8,9-tetrahydro-5H-benzo[7]annulene-2-yl)-1H-1,2,4-triazole-3,5-diamine] came in with an IC50 of less than 1 µM.

For orientation: IC50 means the midpoint of a concentration-inhibition curve. The low end stands for higher potency, the high end for lower potency.
